Target: B. subtilis DAPAS (Bs-DAPAS) (Bacillus subtilis, UniProt P53555)
Test: X-ray crystal structure, […] Å
Type: binding
Conditions: active site

B. subtilis DAPAS (Bs-DAPAS), sequence (P53555 whole entry, looked up): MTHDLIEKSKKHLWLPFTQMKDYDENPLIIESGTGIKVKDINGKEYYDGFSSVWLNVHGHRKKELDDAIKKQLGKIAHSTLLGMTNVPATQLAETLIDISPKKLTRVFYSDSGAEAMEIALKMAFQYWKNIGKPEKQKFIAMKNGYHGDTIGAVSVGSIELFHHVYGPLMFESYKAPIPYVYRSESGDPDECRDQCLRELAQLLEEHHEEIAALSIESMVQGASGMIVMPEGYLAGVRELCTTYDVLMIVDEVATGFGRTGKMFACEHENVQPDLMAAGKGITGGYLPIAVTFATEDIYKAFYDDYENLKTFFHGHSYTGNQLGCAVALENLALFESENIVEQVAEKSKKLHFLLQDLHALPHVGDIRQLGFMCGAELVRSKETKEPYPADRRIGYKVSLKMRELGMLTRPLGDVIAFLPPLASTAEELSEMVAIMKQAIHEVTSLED

Cc1ncc(COP(=O)(O)O)c(C=O)c1O [PLP]
X-ray crystal structure, 1.9 Å (cocrystallization, 1 mM PLP): the crystal structure of the B. subtilis DAPAS apoprotein, its PLP-bound complex

— publication PMC3503319 (Biochemistry, 2010)
